{"source": "patent US20130183706A1", "about": "“Method for Culturing Adipocytes” (ASSISTANCE PUBLIQUE-HOPITAUX DE PARIS, priority 2010, published 2013)", "tested_on": "Akt phosphorylation in mature adipocytes", "assay": "Measurement of insulin sensitivity (Ser473 Akt phosphorylation, immunoelectrophoresis)", "format": "cell-based, human", "details": "insulin 10 nM, 15 to 30 minutes; freshly isolated adipocytes (2D) and adipocytes kept 48 h in hydrogel (3D)", "description": "The mature adipocytes are isolated by collagenase treatment of human adipose tissue. The subcutaneous human adipose tissue of young women (<45 years) who are not obese (BMI<30) is cut up in digestion medium (DMEM, 2% essentially fatty acid free albumin (A6003, Sigma, St Louis, […]., USA), 1 mg/ml collagenase A (Roche Diagnostics, Mannheim, Germany)) in the proportion of 1 g of tissue per 2 ml of digestion medium in polypropylene tubes. The tubes are placed at 37° C. for […] with agitation (200 cycles/minute). After digestion, the medium is filtered through woven cotton gauze. The mature adipocytes are left to decant by floating for 5 minutes and are then washed 3 times with 5 volumes of 10% sucrose. At the end of the final wash, the sucrose is removed and the mature adipocytes are ready to be incorporated into the PuraMatrix™ hydrogel.\nThe wells containing the hydrogel/adipocytes deprived of insulin the day before are incubated with the incubation medium (150 μl) (DMEM/F12 and 10 nM insulin). The plates are then placed in the incubator for 15 to 30 minutes. […] The signals are detected by chemiluminescence (Detection ECL, GE Healthcare) and quantified by densitometry.", "data": [{"substance": "Insulin: major anabolic hormone", "values": [{"measurement": "Akt phosphorylation (Ser473)", "result": "stimulates"}]}]}
